In brackets after ≈: the same amount, converted by molar mass. Read-outs that look alike come from different tables or passages of the source.
Key:
recombinant human MAO-B [1] = biological target: T1, recombinant human MAO-B (Homo sapiens, UniProt P27338); conditions: human (h); Figure 2 and introduction; ref Chen et al., 2002; Pretorius et al., 2008; Wang et al., 2017; Stössel et al., 2013; cited from earlier work
T1 construct: purchased Sigma-Aldrich M7441; host or cells: baculovirus-infected insect cells
T1 sequence (P27338 1-520): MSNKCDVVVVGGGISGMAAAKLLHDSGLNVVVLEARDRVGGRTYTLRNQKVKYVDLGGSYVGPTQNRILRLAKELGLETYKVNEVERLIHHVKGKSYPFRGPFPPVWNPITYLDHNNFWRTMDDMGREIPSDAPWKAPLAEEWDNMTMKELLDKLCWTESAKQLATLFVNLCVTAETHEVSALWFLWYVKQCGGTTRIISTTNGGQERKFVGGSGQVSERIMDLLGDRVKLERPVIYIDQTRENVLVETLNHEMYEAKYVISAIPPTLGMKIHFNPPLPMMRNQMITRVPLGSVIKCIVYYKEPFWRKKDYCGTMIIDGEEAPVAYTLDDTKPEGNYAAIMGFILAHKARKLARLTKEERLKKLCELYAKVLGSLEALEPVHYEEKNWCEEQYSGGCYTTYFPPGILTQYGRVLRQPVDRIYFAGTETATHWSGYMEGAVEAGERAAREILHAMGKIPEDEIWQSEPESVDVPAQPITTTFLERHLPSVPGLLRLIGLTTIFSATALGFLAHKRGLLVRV

recombinant human MAO-B [2] = biological target: T1, recombinant human MAO-B; experiment: Monoamine oxidase assay (Amplex Red), MAO-B; assay type: biochemical; conditions: for IC50: n = 3, read-out: IC50 ± SEM, Human MAO-B
Outline: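 Inhibition was measured with an Amplex Red monoamine oxidase assay, using human MAO-A and MAO-B produced recombinantly in baculovirus-infected insect cells. For rat MAO-B, liver mitochondria-enriched fractions from male Sprague Dawley rats served as enzyme source.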

human A1 AR = biological target: T2, human A1 AR (Homo sapiens, UniProt P30542); experiment: Radioligand binding assay at human A1 AR vs. [^3H]CCPA; conditions: human (h); CHO cell membranes; n = 3
T2 construct: expressed in transfected cells; host or cells: CHO cells
T2 sequence (P30542 1-326): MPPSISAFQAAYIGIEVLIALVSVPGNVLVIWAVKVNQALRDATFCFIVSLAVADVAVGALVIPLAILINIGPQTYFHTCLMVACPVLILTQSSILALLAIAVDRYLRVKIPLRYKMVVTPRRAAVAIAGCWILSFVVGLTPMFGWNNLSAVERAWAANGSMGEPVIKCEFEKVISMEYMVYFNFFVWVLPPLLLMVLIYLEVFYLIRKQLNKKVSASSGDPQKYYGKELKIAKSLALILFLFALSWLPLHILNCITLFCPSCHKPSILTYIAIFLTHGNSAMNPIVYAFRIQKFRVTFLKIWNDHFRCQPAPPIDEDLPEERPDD
Outline: (§1)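 Competition binding; rat A1: brain cortex membranes; rat A2A: brain striatum membranes; human A1/A2A/A2B/A3: membranes from CHO cells each expressing one human subtype. Affinity only, no functional testing.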

rat A1 AR = biological target: T3, rat A1 AR (Rattus norvegicus, UniProt P25099); experiment: Radioligand binding assay at rat A1 AR (rat brain cortex) vs. [^3H]CCPA; conditions: rat (r); rat brain cortex; n = 3
T3 construct: A1 ARs of rat brain cortical membrane; from tissue; host or cells: rat brain cortex membranes
T3 sequence (P25099 1-326): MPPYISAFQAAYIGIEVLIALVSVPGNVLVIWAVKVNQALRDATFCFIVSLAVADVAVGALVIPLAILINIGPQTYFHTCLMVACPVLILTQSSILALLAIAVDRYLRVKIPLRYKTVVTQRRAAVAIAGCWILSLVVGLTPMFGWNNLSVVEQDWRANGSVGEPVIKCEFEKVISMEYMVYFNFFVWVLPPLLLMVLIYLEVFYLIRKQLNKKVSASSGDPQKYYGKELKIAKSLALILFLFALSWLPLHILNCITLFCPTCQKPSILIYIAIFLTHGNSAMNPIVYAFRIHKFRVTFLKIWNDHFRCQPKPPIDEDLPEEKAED
Outline: as §1

human A3 AR = biological target: T4, human A3 AR (Homo sapiens, UniProt P0DMS8); experiment: Radioligand binding assay at human A3 AR vs. [^3H]PSB-11; conditions: CHO cell membranes, n = 2 (n = 3 where marked a), read-out: Ki ± SEM, A3 vs. [^3H]PSB-11
T4 construct: expressed in transfected cells; host or cells: CHO cells
T4 sequence (P0DMS8 1-318): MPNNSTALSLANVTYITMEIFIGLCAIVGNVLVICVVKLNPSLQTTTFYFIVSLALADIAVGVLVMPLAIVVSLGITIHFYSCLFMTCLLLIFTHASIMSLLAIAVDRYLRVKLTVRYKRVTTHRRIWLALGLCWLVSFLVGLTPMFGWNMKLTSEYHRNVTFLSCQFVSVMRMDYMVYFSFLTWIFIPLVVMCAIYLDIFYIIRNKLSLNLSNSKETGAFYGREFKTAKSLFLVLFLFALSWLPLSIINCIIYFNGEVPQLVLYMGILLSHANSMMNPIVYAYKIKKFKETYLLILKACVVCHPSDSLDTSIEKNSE
Outline: as §1

rat A2A AR = biological target: T5, rat A2A AR (Rattus norvegicus, UniProt P30543); experiment: Radioligand binding assay at rat A2A AR (rat brain striatum) vs. [^3H]MSX-2; conditions: rat (r); for Ki: rat brain striatum, n = 3, read-out: Ki ± SEM, A2A vs. [^3H]MSX-2
T5 construct: A2A ARs of rat brain striatal membrane preparations; from tissue; host or cells: rat brain striatum membranes
Outline: as §1

recombinant human MAO-A = biological target: T6, recombinant human MAO-A (Homo sapiens, UniProt P21397); experiment: Monoamine oxidase assay (Amplex Red), MAO-A; assay type: biochemical
T6 construct: purchased Sigma-Aldrich M7316; host or cells: baculovirus-infected insect cells
T6 sequence (P21397 1-527): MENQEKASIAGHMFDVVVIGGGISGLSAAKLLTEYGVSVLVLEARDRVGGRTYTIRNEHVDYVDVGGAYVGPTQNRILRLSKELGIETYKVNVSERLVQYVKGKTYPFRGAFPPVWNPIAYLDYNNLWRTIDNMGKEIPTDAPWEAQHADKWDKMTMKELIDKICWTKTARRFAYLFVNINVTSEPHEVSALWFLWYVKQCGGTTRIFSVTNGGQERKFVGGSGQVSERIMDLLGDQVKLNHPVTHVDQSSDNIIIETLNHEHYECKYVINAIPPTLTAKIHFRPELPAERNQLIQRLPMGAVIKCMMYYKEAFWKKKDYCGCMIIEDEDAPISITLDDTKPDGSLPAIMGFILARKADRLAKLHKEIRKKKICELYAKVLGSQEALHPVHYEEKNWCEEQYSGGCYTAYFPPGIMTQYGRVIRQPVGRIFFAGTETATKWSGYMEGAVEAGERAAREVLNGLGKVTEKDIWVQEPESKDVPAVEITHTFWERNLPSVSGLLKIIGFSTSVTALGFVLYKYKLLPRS
Procedure: The determination of MAO-A and MAO-B inhibition was performed using commercially available recombinant human MAO-A and MAO-B enzymes expressed in baculovirus-infected insects sells (Sigma-Aldrich, M7316 and M7441) applying the commercially available Amplex® Red monoamine oxidase assay kit (Invitrogen A12214). The assays were performed as previously described. The determination of rat MAO-B inhibition was performed using mitochondrial-enriched fractions from male Sprague Dawley rat livers. […]

human A2A AR = biological target: T7, human A2A AR (Homo sapiens, UniProt P29274); experiment: Radioligand binding assay at human A2A AR vs. [^3H]MSX-2; conditions: CHO cell membranes, n = 3, read-out: Ki ± SEM, A2A vs. [^3H]MSX-2
T7 construct: expressed in transfected cells; host or cells: CHO cells
Procedure: Membrane preparations and radioligand binding assays at rat A1 (rat brain cortex) and rat A2A ARs (rat brain striatum) were performed as previously described (Ozola et al., [2003]; Alnouri et al., [2015]). For assays at human A1, A2A, A2B, and A3 ARs, CHO cell membranes expressing one of the human AR subtypes were used as previously reported (Klotz et al., [1998]; Alnouri et al., [2015]; De Filippo et al., [2016]).
The synthesized tetrahydropyrazino[2,1-f ]purinediones 13–20 were evaluated in radioligand binding assays for their affinity to A1 ARs of rat brain cortical membrane and to A2A ARs of rat brain striatal membrane preparations. Selected compounds were further investigated for their affinity to human A1 and A2A ARs recombinantly expressed in Chinese hamster ovary (CHO) cells. All compounds were additionally investigated for their affinity to human A2B and A3 ARs recombinantly expressed in CHO cells to determine their AR subtype selectivity. […] It is well known that all xanthine derivatives lacking a ribose moiety, including tricyclic compounds, can only block ARs, but never act as AR agonists; therefore, additional functional studies were not required. […] Potent MAO-B inhibitors were additionally investigated for inhibition of human MAO-A to assess their selectivity. Results are presented in Tables 1–6, and data of standard ligands are included for comparison.

[3] = Thermodynamic solubility measurements; assay type: physicochemical; conditions: thermodynamic from solid, thermodynamic solubility
From the text: This is expected to facilitate dissolution in the stomach. Depending on the substitution pattern they may also be well soluble at higher pH values (Brunschweiger et al., [2014]). In the present study we measured thermodynamic solubility of only very few compounds exemplarily (14a-e, 14g, 15f,g) and confirmed their high solubility at pH 1 (see Table S1 in Supplementary Material). Most of these compounds were still soluble at pH 7.4. The best soluble derivative was the 3-ethyl-1-methyl-8-m-fluorobenzyl derivative 14g with solubilities of >1.5 g/L (4.2 mM) at pH 1, 50 mg/L (0.14 mM) at pH 4, and 40 mg/L ([…]) at pH 7.4.
Table S1. Solubility of selected compounds at three different pH values (in mg/mL).a
Compound pH 1 pH 4 pH 7.4
adetermined by thermodynamic solubility measurements.

human A2B AR = biological target: T8, human A2B AR (Homo sapiens, UniProt P29275); experiment: Radioligand binding assay at human A2B AR vs. [^3H]PSB-603
T8 construct: expressed in transfected cells; host or cells: CHO cells
T8 sequence (P29275 1-332): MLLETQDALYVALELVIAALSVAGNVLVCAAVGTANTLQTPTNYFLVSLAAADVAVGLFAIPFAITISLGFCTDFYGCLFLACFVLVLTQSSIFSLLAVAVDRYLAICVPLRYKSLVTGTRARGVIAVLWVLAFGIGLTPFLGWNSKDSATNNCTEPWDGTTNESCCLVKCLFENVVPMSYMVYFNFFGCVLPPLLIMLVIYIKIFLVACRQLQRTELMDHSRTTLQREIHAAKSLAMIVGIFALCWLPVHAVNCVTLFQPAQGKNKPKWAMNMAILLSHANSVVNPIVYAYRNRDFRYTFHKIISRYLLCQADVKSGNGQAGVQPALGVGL
Outline: as §1

T5 sequence (P30543 whole entry): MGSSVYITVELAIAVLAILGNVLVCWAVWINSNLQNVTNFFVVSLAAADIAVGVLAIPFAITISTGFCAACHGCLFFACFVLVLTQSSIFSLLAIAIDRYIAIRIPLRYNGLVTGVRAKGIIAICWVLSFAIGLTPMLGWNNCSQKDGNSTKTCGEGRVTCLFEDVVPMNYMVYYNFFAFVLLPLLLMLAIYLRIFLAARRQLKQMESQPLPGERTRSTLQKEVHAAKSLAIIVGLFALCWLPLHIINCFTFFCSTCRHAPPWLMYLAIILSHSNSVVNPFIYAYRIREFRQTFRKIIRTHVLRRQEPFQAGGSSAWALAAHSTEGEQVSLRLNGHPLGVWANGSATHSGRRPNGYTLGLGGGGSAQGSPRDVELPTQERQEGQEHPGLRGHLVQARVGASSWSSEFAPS
T7 sequence (P29274 whole entry): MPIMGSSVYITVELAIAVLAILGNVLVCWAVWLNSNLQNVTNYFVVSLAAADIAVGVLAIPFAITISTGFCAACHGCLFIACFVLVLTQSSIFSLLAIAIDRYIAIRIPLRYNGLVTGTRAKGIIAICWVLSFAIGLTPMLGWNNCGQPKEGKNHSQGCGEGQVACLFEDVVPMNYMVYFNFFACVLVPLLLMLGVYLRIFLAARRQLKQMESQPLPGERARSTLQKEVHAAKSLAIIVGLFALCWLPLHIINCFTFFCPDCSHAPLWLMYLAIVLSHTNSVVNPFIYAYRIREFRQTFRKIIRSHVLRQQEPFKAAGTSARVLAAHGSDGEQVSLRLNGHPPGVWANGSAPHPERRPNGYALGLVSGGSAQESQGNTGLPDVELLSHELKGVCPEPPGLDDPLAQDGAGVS

Compound | IC50 (recombinant human MAO-B [1]) | IC50 (recombinant human MAO-B [2]) | Ki (human A1 AR) | Ki (rat A1 AR) | Ki (human A3 AR) | Ki (rat A2A AR) | inhibition at 10 µM (recombinant human MAO-A; at 10,000 nM, read-out: % inhibition at indicated concentration, Human MAO-A) | IC50 (recombinant human MAO-A; n = 3, read-out: IC50 ± SEM, Human MAO-A) | Ki (human A2A AR) | inhibition at 10 µM (recombinant human MAO-B [2]; at 10,000 nM (10 μM), read-out: % inhibition at indicated concentration, Human MAO-B) | solubility ([3]; aqueous buffer, pH 4, read-out: Solubility, pH 4) | solubility ([3]; aqueous buffer, pH 7.4, read-out: Solubility, pH 7.4) | solubility ([3]; simulated gastric fluid, pH 1, read-out: Solubility, pH 1) | Ki (human A2B AR; CHO cell membranes, n = 2 (n = 3 where marked a), read-out: Ki ± SEM, A2B vs. [^3H]PSB-603) | inhibition at 1 µM (human A2B AR; at 1,000 nM, read-out: % inhibition of radioligand binding at indicated concentration, A2B vs. [^3H]PSB-603) | % inhibition of radioligand binding at indicated concentration, A2A vs. [^3H]MSX-2 (rat A2A AR; at 1,000 nM)
Cn1c(=O)c2c(nc(/C=C/C=C/c3cccc(Br)c3)n2C)n(C)c1=O [Compound 4] | 37.9 nM | – | – | – | – | – | – | – | – | – | – | – | – | – | – | –
CCCn1c(=O)c2c(nc3n2CCN(Cc2ccc(Cl)c(Cl)c2)C3)n(C)c1=O [Compound 18] | – | 2910 nM | 475 ± 47 nM | 152 ± 12 nM | 12.7 µM | 675 ± 104 nM | 9% | > 10 µM | 2110 nM | – | – | – | – | – | – | –
CCn1c(=O)c2c(nc3n2CCN(Cc2ccccc2C(F)(F)F)C3)n(CC)c1=O [Compound 15f, 1,3-diethyl-8-(2-(trifluoromethyl)benzyl)-6,7,8,9-tetrahydropyrazino[2,1-f]purine-2,4(1H,3H)-dione] | – | > 10000 nM | 129 ± 9 nM | 51.4 ± 14.7 nM | 4.06 µM | > 1000 nM | – | – | – | 41% | 0.9 µg/mL (≈ 2.14 µM) | 0.7 µg/mL (≈ 1.66 µM) | 300 µg/mL (≈ 712 µM) | > 1000 nM | 2% | 32%

From publication PMC6028563, “Probing Substituents in the 1- and 3-Position: Tetrahydropyrazino-Annelated Water-Soluble Xanthine Derivatives as Multi-Target Drugs With Potent Adenosine Receptor Antagonistic Activity” (Frontiers in Chemistry, 2018)
